Reference: patent publication US7608724B2, “Antibacterial and/or antiprotozoal nitromidazole derivative compounds with urease inhibitor activity, process for preparing these compounds and use in pharmaceutical compositions and medicines” (EMS S.A., priority 2003, dated 2009)

Key:
urease = assay: Urease inhibiting test (phenol red, formation of ammonium from urea); assay type: biochemical; conditions: molar concentration of 30 nM
Description: Urease inhibition is evaluated by the assay based on RUÍZ-HERRERA, J; GONZALEZ, L. A (1969) and has the objective to verify in the visible spectra, by using phenol red as indicator, the formation of ammonium from urea according to the following reaction: […]

[1] = system: Salmonella typhimurium T-100 strain; assay: Ames Test without metabolic activation (−S9), mutagenic activity; assay type: cell-based; conditions: for revertant colonies per plate (mean ± standard deviation): −S9, T-100 strain; for mutagenic rate (RM): −S9, positive response ≧2
Description: The mutagenic activity of the compounds were evaluated by The Ames Test without metabolic activation (−S9), with Salmonella typhimurium T-100 strain. The test is based in the fact that indicating S. typhimurium strains are sensitive to substances capable of inducing different kinds of mutation. In the presence of mutagenic agents, these strains revert the character of histidine auxotrophic synthesis, and start forming colonies in a medium were this aminoacid is absent. The mutagenic activity of a compound as its concentration function is established by counting the number of colonies per plate.
The final data obtained were analyzed by using Salanal software (Salmonella Assay Analysis) Version 1.0 from Research Triangle Institute, RTP, North Carolina, USA. This software allows to evaluate the dose-answer response by performing an analysis of variance (ANOVA f-test) between the mean revertants number in the different tested concentrations (doses) and the negative control, followed by a linear regression. […] The slope of the linear part of response-dosage curve is also furnished by the program and it corresponds to the number of revertants induced per mg of the sample analyzed.
MR is calculated by the following equation: […]

Compound | Urease inhibiting percentage (urease; 1 minute) [%] | Urease inhibiting percentage (urease; 2 minutes) [%] | Urease inhibiting percentage (urease; 3 minutes) [%] | revertant colonies per plate (mean ± standard deviation) ([1]; 2.9 (mM)/plate) [colonies per plate] | mutagenic rate (RM) ([1]; 2.9 (mM)/plate) | revertant colonies per plate (mean ± standard deviation) ([1]; 14.6 (mM)/plate) [colonies per plate] | mutagenic rate (RM) ([1]; 14.6 (mM)/plate) | revertant colonies per plate (mean ± standard deviation) ([1]; 29.2 (mM)/plate) [colonies per plate] | mutagenic rate (RM) ([1]; 29.2 (mM)/plate) | revertant colonies per plate (mean ± standard deviation) ([1]; 58.4 (mM)/plate) [colonies per plate] | mutagenic rate (RM) ([1]; 58.4 (mM)/plate) | revertant colonies per plate (mean ± standard deviation) ([1]; 116.9 (mM)/plate) [colonies per plate] | mutagenic rate (RM) ([1]; 116.9 (mM)/plate) | mutagenic activity compared with metronidazole parent drug or its monosuccinate ester (example 1) ([1]; FIG. 1, from table 1)
Cc1ncc([N+](=O)[O-])n1CCOC(=O)CCC(=O)NC(=S)NC(=O)CCC(=O)OCCn1c([N+](=O)[O-])cnc1C [Example 5, Bis[2-(2-methyl-5-nitro-1H-imidazol-1-yl)ethyl]4,4′[(thioxomethylene)diimine]bis(4-oxobutanoate)] | 74 | 67 | 65 | 162 ± 29 | RM = 1.3 | 316 ± 19 | RM = 2.5 | 606 ± 94 | RM = 4.8 | 1095 ± 100 | RM = 8.7 | 1582 ± 79 | RM = 12.5 | very inferior
Cc1ncc([N+](=O)[O-])n1CCO [Metronidazole, 2-(2-methyl-5-nitro-1H-imidazol-1-yl)ethanol] | 6 | 7 | 7 | – | – | – | – | – | – | – | – | – | – | –
NC(N)=S [Tiourea, thiourea] | 23 | 16 | 17 | – | – | – | – | – | – | – | – | – | – | –
